Assay results published in PubChem BioAssay AID1259408 (Genetic Toxicology Data Bank (GENE-TOX), 2018).
Activity calls are given as the source filed them. The rule behind the calls is not given here.

System: GENE-TOX genotoxicity assays, various organisms and cells
Assay: GENE-TOX mutagenicity studies
Conditions: for call: Assay Type: In vivo carcinogenicity studies
[1] = Species/Cell Type: Mammalian polychromatic erythrocytes, Assay Type: Micronucleus test, chromosome aberrations, Assay Code: MNTT, Evaluation Type: Evaluation A (Pre-1980)
[2] = Species/Cell Type: Salmonella typhimurium (one or more of the five standard strains: TA98, TA100, TA1535, TA1537, and TA1538), Assay Type: Histidine reverse gene mutation, Ames assay, Assay Code: SAL+, Evaluation Type: Evaluation A (Pre-1980)
[3] = Species/Cell Type: Nonhuman, Assay Type: Sister-chromatid exchange (SCE) in vitro, Assay Code: SC2+, Evaluation Type: Evaluation B (Post-1980)
[4] = Species/Cell Type: Nonhuman, Assay Code: CCG+, Evaluation Type: Evaluation A (Pre-1980)
[5] = Species/Cell Type: Nonhuman, Assay Type: Sister-chromatid exchange (SCE) in vivo, Assay Code: SC3T, Evaluation Type: Evaluation B (Post-1980)
[6] = Species/Cell Type: Human lymphocytes, Assay Type: Sister-chromatid exchange (SCE) in vitro, Assay Code: SCL+, Evaluation Type: Evaluation B (Post-1980)
[7] = Species/Cell Type: Human, Assay Type: Sister-chromatid exchange (SCE) in vitro, Assay Code: SC1+, Evaluation Type: Evaluation B (Post-1980)

Cn1c([N+](=O)[O-])cnc1COC(N)=O
mutagenic call [1]: no conclusion
mutagenic call (Species/Cell Type: Rodents, Sex: Male, Assay Type: Dominant lethal test, Assay Code: DLT-, Evaluation Type: Evaluation A (Pre-1980)): inactive; negative
mutagenic call [2]: active; positive

CC(=O)[O-].CC(=O)[O-].[Co+2]
mutagenic call (Species/Cell Type: Syrian hamster embryo (SA7/SHE) cells, Assay Type: Cell transformation, viral enhanced, Assay Code: CT7+, Evaluation Type: Evaluation A (Pre-1980)): active; positive

ClCc1c2ccccc2c(Cl)c2ccccc12
mutagenic call [2]: active; positive

CC(Cl)(Cl)Cl
mutagenic call (Species/Cell Type: Fischer rat embryo (RLV/1706) cells, Assay Type: Cell transformation, viral enhanced, Assay Code: CTR+, Evaluation Type: Evaluation A (Pre-1980)): active; positive
mutagenic call [1]: no conclusion
mutagenic call (Species/Cell Type: Mouse, Sex: Male, Assay Type: Sperm morphology, Assay Code: SPI-, Evaluation Type: Evaluation A (Pre-1980)): inactive; negative
call (Species/Cell Type: Nonhuman, Assay Code: CCGT, Evaluation Type: Evaluation A (Pre-1980)): no conclusion
mutagenic call [3]: active; positive

c1ccc2c(c1)-c1ccc3ccc4cccc5cc-2c1c3c45
call [4]: active; positive

CC(C)c1ccccc1OC(=O)N(C)N=O
mutagenic call (Species/Cell Type: Bacillus subtilis (H17 vs M45T), Assay Type: Rec-assay, spot test, DNA effects (bacterial DNA repair), Assay Code: REX+, Evaluation Type: Evaluation A (Pre-1980)): active; positive
mutagenic call (Species/Cell Type: Escherichia coli WP2, Assay Type: Tryptophan reverse gene mutation, Assay Code: WP2+, Evaluation Type: Evaluation A (Pre-1980)): active; positive

COc1ccc([N+](=O)[O-])cc1N
call [4]: active; positive
mutagenic call [2]: active; positive

CCCCNC(=O)NS(=O)(=O)c1ccc(N)cc1
mutagenic call [5]: no conclusion

Cc1nc(N)cc2c1[nH]c1ccccc12
mutagenic call [6]: active; positive
mutagenic call [7]: active; positive
mutagenic call (Species/Cell Type: Nonhuman, Assay Type: Sister-chromatid exchange (SCE) in vitro, Assay Code: SC2+D, Dose Response: With dose response, Evaluation Type: Evaluation B (Post-1980)): active; positive

COc1cc2c(c3oc4cccc(OC(C)=O)c4c(=O)c13)C1C=COC1O2 (centres undefined)
mutagenic call (Species/Cell Type: Salmonella typhimurium (one or more of the five standard strains: TA98, TA100, TA1535, TA1537, and TA1538), Assay Type: Histidine reverse gene mutation, Ames assay, Assay Code: SALT, Evaluation Type: Evaluation A (Pre-1980)): no conclusion

N=NN
mutagenic call (Species/Cell Type: Drosophila melanogaster, Assay Type: Sex-linked recessive lethal gene mutation, Assay Code: SRL+, Evaluation Type: Evaluation A (Pre-1980)): active; positive

CC[C@]1(O)CC2CN(CCc3c([nH]c4ccccc34)[C@@](C(=O)OC)(c3cc4c(cc3OC)N(C=O)[C@H]3[C@@](O)(C(=O)OC)[C@H](OC(C)=O)[C@]5(CC)C=CCN6CC[C@]43[C@@H]65)C2)C1 (some centres undefined)
mutagenic call (Species/Cell Type: Human lymphocytes, Assay Type: Sister-chromatid exchange (SCE) in vitro, Assay Code: SCL+, Evaluation Type: Evaluation A (Pre-1980)): active; positive
mutagenic call [6]: active; positive
mutagenic call (Species/Cell Type: Human lymphocytes, Assay Type: Sister-chromatid exchange (SCE) in vitro, Assay Code: SCLT, Evaluation Type: Evaluation B (Post-1980)): no conclusion
mutagenic call [7]: active; positive
mutagenic call (Species/Cell Type: Human, Assay Type: Sister-chromatid exchange (SCE) in vitro, Assay Code: SC1T, Evaluation Type: Evaluation B (Post-1980)): no conclusion
mutagenic call (Species/Cell Type: Mammalian polychromatic erythrocytes, Assay Type: Micronucleus test, chromosome aberrations, Assay Code: MNT+, Evaluation Type: Evaluation A (Pre-1980)): active; positive
mutagenic call (Species/Cell Type: Mouse (C3H/10T1/2) cells, Assay Type: Cell transformation, Assay Code: CTH-, Evaluation Type: Evaluation A (Pre-1980)): inactive; negative
mutagenic call [3]: active; positive
mutagenic call [5]: no conclusion

O=[N+]([O-])c1ccc(Oc2c(Cl)cc(Cl)cc2Cl)cc1
mutagenic call [1]: no conclusion

Cl/C=C\CCl
mutagenic call [2]: active; positive

CN(C)CC/C=C1/c2ccccc2Sc2ccc(Cl)cc21
mutagenic call (Species/Cell Type: Nonhuman, Assay Type: Sister-chromatid exchange (SCE) in vitro, Assay Code: SC2+D, Dose Response: With dose response, Evaluation Type: Evaluation A (Pre-1980)): active; positive

COc1cc2c(c3c(C)cc4ccccc4c13)CCC2=O
mutagenic call (Species/Cell Type: Salmonella typhimurium (one or more of the five standard strains: TA98, TA100, TA1535, TA1537, and TA1538), Assay Type: Histidine reverse gene mutation, Ames assay, Assay Code: SAL+*, Activation: With metabolic activation, Evaluation Type: Evaluation A (Pre-1980)): active; positive
